Data taken from patent US20070179183A1 (priority 2003, published 2007).

Molecular target: T1, α4β1 integrin (Homo sapiens, UniProt P05556+P13612)
T1 construct: endogenous in cells; host or cells: U-937 cells
Experiment: U-937 Cell Adhesion to Human VCAM-1 (α4β1 Binding Assay)
Type: cell-based
Settings: read-out: IC50 values in the α4β1 assays
Method: Recombinant human soluble VCAM-1. (R&D Systems Ltd., UK) at 2 μg/ml in PBS was immobilized overnight onto microtiter plates. Unbound VCAM-1 was washed away and VCAM-1 coated plates were blocked with bovine serum albumin (BSA) 2.5% in PBS for 2 h at room temperature. U-937 cells were labelled with 5-carboxyfluorescein diacetate (5-CFDA) in order to detect bound cells to the wells. Test compounds were added to the wells followed by U-937 cells and the adhesion assay was performed for 1 h at 37° C. Following incubation, the wells were emptied and washed. Inhibition of binding was measured by the quantity of fluorescence bound to the plate for each of the various concentrations of test compound, as well as for controls containing no test compound, with a Cytofluor 2300 fluorescence measurement system.

T1 sequence (P13612 34-1032): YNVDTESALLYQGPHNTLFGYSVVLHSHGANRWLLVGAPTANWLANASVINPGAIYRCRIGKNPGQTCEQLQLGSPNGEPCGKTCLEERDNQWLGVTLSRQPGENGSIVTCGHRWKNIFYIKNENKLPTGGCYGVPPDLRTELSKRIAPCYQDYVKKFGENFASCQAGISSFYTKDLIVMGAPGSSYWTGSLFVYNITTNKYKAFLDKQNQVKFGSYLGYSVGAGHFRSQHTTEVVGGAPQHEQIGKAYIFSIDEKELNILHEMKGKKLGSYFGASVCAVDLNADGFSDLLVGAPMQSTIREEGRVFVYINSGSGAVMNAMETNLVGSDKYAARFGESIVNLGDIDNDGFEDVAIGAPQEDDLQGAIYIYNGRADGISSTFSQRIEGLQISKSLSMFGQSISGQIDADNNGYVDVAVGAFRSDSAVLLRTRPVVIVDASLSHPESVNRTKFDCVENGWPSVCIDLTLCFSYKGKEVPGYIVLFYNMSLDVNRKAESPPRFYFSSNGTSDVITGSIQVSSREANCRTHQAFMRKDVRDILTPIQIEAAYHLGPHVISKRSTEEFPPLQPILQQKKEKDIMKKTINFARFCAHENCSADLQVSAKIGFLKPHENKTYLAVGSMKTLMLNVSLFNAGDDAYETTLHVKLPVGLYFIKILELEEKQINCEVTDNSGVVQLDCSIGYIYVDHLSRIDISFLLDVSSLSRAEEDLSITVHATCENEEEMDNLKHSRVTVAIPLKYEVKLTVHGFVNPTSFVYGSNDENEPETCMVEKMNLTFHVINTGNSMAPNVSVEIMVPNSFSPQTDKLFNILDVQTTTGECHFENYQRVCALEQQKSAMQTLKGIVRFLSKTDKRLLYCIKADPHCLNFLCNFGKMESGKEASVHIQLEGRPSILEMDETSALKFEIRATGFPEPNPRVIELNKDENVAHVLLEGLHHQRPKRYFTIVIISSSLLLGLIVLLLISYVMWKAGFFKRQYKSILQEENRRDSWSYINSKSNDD
T1 sequence (P05556 21-798): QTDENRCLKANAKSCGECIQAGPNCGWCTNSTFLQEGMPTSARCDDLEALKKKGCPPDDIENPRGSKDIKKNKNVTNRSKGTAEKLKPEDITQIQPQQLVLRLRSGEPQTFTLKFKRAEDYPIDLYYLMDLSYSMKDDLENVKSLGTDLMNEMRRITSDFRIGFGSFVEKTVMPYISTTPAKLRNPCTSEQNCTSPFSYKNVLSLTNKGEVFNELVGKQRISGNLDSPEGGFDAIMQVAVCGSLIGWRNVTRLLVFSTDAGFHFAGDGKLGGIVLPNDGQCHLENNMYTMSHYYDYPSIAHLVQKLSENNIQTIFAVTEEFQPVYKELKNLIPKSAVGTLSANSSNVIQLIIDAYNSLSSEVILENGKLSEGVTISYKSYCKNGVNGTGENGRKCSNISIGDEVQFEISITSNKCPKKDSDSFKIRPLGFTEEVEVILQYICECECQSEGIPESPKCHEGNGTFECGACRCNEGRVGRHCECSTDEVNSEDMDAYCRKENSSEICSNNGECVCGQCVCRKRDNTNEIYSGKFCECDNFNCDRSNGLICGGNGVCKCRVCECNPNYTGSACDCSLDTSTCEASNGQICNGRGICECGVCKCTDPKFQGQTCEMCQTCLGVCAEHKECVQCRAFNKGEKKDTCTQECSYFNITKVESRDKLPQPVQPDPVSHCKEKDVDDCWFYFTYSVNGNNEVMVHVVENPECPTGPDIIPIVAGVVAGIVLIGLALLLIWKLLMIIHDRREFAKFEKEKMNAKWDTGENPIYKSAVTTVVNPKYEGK

Row | IC50 | SMILES
1 | < 0.1 µM | O=C(Nc1ccc(C[C@H](NS(=O)(=O)NCc2ccccc2)C(=O)O)cc1)c1c(Cl)cccc1Cl [Example 3, (2S)-2-(N-benzylaminosulfonilamino)-3-[4-(2,6dichlorobenzoylamino)phenyl]propionic acid]
2 | < 0.1 µM | CC(C)N(C1CCCC1)S(=O)(=O)N[C@@H](Cc1ccc(NC(=O)c2c(Cl)cncc2Cl)cc1)C(=O)O [Example 71, (2S)-2-({[cyclopentyl(isopropyl)amino]sulfonyl}amino)-3-{4-[(3,5-dichloroisonicotinoyl)amino]phenyl}propionic acid]
3 | < 0.1 µM | CC(C)CN([C@H](C)c1ccccc1)S(=O)(=O)N[C@@H](Cc1ccc(NC(=O)c2c(Cl)cncc2Cl)cc1)C(=O)O [Example 77, (2S)-3-{4-[(3,5-dichloroisonicotinoyl)amino]phenyl}-2-[({isobutyl[(1R)-1-phenylethyl]amino}sulfonyl)amino]propionic acid]
4 | < 0.1 µM | O=C(Nc1ccc(C[C@H](NS(=O)(=O)Nc2ccccc2S(=O)(=O)c2ccccc2)C(=O)O)cc1)c1c(Cl)cncc1Cl [Example 81]
